The source made the active and inactive calls. A value given as a limit tells only on which side of the number the result lay.

12 compounds from ChEMBL document CHEMBL1201862, “PubChem BioAssay data set” (2004) can be followed below.

One assay concerns HEK293. Briefly: EBV LMP1 TES2 canonical NF-kB signalling blockers – cell-based, HEK293, luciferase, cherry-pick, dose response (AID 588343). The class given is functional. The settings on record: Homo sapiens.
Assay [1] has as its target T1, Corticotropin-releasing factor receptor 2/Corticotropin-releasing factor-binding protein (Homo sapiens, UniProt P24387+Q13324).
T1 sequence (Q13324 whole entry): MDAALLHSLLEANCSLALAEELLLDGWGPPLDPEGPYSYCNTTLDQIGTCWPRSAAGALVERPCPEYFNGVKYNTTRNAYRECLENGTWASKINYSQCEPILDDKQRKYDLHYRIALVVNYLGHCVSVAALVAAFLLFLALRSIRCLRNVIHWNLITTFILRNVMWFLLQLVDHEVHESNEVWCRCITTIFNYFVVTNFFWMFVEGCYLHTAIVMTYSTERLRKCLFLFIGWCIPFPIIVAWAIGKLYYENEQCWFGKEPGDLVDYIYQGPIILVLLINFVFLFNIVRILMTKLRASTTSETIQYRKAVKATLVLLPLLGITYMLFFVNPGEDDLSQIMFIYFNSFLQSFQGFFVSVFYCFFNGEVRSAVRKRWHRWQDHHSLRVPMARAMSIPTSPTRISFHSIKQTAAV
T1 sequence (P24387 whole entry): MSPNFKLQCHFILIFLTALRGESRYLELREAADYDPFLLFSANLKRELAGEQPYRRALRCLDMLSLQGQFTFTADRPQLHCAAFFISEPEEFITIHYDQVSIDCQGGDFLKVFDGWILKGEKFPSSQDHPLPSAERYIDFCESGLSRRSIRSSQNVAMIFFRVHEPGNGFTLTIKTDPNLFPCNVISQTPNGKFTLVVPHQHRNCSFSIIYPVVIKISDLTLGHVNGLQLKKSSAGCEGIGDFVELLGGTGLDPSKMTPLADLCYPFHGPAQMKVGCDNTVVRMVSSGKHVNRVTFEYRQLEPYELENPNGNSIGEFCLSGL
The assay can be described thus: activators of CRF receptor 2 with binding protein – uHTS hits, confirmation (AID 602473). The class given is functional. The conditions noted are these: read-out: EC50_Mean.

Assay [2] concerns the target T2, Heat shock factor protein 1 (Mus musculus, UniProt P38532).
T2 sequence (P38532 whole entry): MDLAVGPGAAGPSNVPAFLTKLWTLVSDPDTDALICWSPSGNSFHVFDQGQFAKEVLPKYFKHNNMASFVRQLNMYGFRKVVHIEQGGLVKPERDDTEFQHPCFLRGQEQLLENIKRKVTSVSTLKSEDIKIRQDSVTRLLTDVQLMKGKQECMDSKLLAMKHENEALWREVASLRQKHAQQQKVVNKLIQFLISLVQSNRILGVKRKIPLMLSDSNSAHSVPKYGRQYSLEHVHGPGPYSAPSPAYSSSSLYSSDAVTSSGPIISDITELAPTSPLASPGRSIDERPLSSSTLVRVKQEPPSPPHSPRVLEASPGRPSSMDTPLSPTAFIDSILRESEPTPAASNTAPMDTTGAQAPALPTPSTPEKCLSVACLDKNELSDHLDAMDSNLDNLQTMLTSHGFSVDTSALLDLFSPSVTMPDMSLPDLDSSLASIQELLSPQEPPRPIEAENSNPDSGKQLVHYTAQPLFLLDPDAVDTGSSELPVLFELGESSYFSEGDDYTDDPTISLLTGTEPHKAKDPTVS
Briefly: decrease of HSF1-responsive luciferase luminescence – cell-based, NIH3T3, dose retest, confirmation (AID 2382).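 Also: NIH3T3 fibroblasts with HSF1-driven luciferase reporter stressed by proteasome inhibitor MG132; luminescence from HSF1-driven luciferase expression after 8 hours of MG132 stress.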 The class given is functional.

A short description of assay [3]: bead-based luminescence quenchers, dual-tagged ARNT – biochemical, AlphaScreen, cherry-pick, artefact control for ARNT-TACC3 interaction inhibitor project, dose response (AID 651705).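 Also: AlphaScreen bead proximity signal that flags compounds interfering with the detection technology; potency reflects signal decrease which marks the compound as an assay artifact.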 The class given is functional. (In general: In Alpha technology, singlet oxygen from a donor bead excites a nearby acceptor bead.)
Assay [4] concerns the target T3, Eukaryotic translation initiation factor 2-alpha kinase 3 (Homo sapiens, UniProt Q9NZJ5).
T3 sequence (Q9NZJ5 whole entry): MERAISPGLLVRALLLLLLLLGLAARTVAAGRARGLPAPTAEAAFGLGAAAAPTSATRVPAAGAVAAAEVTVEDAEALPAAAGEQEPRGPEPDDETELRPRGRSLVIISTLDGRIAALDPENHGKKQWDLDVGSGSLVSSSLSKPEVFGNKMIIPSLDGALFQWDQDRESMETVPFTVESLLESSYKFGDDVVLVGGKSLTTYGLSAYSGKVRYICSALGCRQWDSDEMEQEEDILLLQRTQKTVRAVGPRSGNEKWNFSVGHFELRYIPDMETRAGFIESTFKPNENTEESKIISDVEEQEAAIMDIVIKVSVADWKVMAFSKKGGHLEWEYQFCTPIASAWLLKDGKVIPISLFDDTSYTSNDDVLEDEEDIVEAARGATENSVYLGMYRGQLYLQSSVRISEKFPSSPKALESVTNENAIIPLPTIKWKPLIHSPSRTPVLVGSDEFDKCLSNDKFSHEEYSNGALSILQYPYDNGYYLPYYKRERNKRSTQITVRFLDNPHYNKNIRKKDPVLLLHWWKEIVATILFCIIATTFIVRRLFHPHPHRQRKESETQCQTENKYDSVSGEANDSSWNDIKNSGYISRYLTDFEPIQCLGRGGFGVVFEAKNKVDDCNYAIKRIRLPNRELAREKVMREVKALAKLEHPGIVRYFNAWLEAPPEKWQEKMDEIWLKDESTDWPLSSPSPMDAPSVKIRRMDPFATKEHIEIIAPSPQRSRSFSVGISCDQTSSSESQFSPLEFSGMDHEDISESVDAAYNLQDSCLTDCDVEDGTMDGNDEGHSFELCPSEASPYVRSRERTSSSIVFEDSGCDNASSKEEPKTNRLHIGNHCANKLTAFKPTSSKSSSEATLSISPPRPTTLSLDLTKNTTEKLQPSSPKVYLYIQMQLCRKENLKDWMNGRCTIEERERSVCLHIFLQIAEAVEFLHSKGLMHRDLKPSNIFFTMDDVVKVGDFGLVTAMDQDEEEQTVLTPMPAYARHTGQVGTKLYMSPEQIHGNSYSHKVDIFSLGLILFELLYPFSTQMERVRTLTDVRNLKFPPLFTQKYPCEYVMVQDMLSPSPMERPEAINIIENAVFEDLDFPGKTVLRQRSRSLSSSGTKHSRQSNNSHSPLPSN
Briefly: Counterscreen assay for PERK inhibitors: Dose response cell-based high throughput screening assay to measure inhibition of PERK at 6 hours. [Related pubchem assays: 1522, 1416 ]. The class given is functional. (The purpose of a counterscreen is to sort out artefacts and off-target activity.)

In assay [5] the target is T4, Replicative DNA helicase DnaB (Mycobacterium tuberculosis, UniProt P9WMR3).
T4 sequence (P9WMR3 whole entry): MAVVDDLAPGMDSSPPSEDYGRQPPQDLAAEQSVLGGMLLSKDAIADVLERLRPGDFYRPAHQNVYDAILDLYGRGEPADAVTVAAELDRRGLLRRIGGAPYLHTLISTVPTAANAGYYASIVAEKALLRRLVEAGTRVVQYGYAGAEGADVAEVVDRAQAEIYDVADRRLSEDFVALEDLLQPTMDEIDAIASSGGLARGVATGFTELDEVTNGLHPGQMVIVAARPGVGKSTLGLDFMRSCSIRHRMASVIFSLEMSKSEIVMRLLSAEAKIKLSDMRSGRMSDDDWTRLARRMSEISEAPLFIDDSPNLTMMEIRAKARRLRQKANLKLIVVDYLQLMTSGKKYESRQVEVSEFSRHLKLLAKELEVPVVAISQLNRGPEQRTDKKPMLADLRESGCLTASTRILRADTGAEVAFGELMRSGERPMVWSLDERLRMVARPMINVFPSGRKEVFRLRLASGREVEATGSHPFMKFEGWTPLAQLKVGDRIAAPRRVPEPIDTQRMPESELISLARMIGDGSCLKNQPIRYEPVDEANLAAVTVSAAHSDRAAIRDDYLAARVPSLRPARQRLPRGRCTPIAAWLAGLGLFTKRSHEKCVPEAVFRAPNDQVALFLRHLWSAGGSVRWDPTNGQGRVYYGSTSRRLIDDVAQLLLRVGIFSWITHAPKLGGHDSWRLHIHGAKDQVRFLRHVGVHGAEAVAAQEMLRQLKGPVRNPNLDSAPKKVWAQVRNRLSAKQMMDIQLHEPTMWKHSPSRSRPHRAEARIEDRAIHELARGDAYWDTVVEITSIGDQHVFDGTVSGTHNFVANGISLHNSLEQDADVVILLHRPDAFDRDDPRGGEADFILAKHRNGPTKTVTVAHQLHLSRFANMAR
Briefly: DnaB intein splicing inhibitors, dose response, biochemical, cell-free fluorescence (AID 449749). The class given is functional.

Assay [6] addresses T3, Eukaryotic translation initiation factor 2-alpha kinase 3. The assay can be described thus: Dose response cell-based high-throughput screening assay to measure PERK inhibition. [Related pubchem assays: 1416 ]. The class given is functional.
The next assay deals with T5, Protein RecA (Mycobacterium tuberculosis, UniProt P9WHJ3).
T5 sequence (P9WHJ3 whole entry): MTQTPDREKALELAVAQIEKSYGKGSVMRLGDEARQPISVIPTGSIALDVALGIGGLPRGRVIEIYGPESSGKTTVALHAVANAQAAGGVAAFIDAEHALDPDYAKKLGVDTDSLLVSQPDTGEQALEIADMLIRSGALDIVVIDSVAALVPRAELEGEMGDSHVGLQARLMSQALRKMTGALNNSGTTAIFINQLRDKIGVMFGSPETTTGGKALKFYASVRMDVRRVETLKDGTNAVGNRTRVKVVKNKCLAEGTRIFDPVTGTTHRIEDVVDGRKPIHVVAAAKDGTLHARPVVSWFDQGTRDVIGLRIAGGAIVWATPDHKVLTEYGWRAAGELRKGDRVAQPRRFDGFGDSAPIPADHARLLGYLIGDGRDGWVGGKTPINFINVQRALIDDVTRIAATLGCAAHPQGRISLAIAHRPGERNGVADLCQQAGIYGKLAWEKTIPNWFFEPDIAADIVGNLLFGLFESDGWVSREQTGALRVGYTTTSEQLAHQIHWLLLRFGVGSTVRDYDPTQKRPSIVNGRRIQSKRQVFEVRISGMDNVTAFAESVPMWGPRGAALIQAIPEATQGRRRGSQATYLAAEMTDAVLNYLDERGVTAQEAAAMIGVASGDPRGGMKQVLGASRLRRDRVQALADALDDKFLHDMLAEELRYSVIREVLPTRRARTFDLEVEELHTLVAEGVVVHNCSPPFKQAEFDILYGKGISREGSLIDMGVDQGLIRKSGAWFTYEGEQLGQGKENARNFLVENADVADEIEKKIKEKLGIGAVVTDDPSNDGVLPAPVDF
Briefly: Fluorescence Cell-Free Homogeneous Dose Retest to Identify Inhibitors of RecA-Intein Splicing Activity. [Related pubchem assays (depositor defined):AID2097, AID2223, AID489010, AID492950]. The class given is functional.

For a further assay, the target named is Nonstructural protein 1 (Influenza A virus, UniProt Q194T2). The class given is functional, Influenza A virus (A/California/07/2009(H1N1)).
Chain of Nonstructural protein 1 (Q194T2 whole entry): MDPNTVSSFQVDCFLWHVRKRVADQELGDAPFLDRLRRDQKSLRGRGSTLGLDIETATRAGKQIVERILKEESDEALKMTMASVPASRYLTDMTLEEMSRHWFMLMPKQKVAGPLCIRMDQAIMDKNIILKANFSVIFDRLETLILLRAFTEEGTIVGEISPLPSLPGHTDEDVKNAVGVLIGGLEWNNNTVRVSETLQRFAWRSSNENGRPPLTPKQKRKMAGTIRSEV
Another assay concerns P388. The assay can be described thus: cells. The settings on record: Mus musculus. The class given is functional.
In a further assay the test system is P388/ADR. Briefly: cells. The class given is functional. The settings on record: Mus musculus.
Another assay concerns SN12K1. The assay can be described thus: cells. The conditions noted are these: Homo sapiens. The class given is functional.

As for `CCN1C(=O)C(=CNc2ccc(N3CCOCC3)c(Br)c2)C(=O)N(CC)C1=S`, in the assay with HEK293, the AC50 – broadly, the concentration giving half of the maximal activity seen – was > 350 µM (inactive). For the same compound, the EC50 in [1] is > 53 µM (inactive); in assay [2], > 195 µM (not active).

As for `Cc1ccccc1-n1nc(C)c2cc(C(=O)NC3CC3)sc21`, in the assay with HEK293, the AC50 was 196 µM (active).

As for `N#CC1=C(N)Oc2c(ccc3cccnc23)C1c1ccncc1` (stereo not given), in assay [3], the AC50 is 99.4 µM (active).

As for `CN1N=C(C(C)(C)C)CC1=O`, the EC50 in [4] is > 55.7 µM (not active); in [6] it was > 55.7 µM (not active); on Protein RecA it was 2.5 µM (active). In addition, the half-maximal activity concentration (AC50) in assay [5] is 9.6 µM (active).

In the case of `Cc1cc(O)nc(NN=Cc2cc(Br)ccc2O)n1`, the IC50 (usually the concentration that gives 50% inhibition) on Nonstructural protein 1 is 12.2 µM (active). Besides, in the assay on HEK293, the concentration at half-maximal activity (AC50) is 5.26 µM (active).

For the compound `Cc1ccc(C(=O)Nc2cccc(C(F)(F)F)c2)cc1Nc1[nH]cnc2ncnc1-2`, the AC50 with HEK293 was 7.93 µM (active).

`C[S+]([O-])c1cc(=O)c2ccccc2s1` (stereo not given): the values for the GI50 with P388, in the assay on P388/ADR and with SN12K1 were 1.83 µM (inactive), 2.66 µM (inactive) and 17.8 µM (inactive), respectively.

Take `CC(=O)OCC1OC(n2cc(F)c(=O)[nH]c2=O)C(N)C(OC(C)=O)C1OC(C)=O` (stereo not given): the GI50 in the assay with P388, in the assay on P388/ADR and in the assay on SN12K1 was > 100 µM (inactive) in each case.

With `O=C1CSc2sc(=S)sc2S1`, the values for the GI50 in the assay with P388, with P388/ADR and in the assay on SN12K1 were 31.2 µM (inactive), 27.7 µM (inactive) and > 100 µM (inactive), respectively.

For `Cc1[nH]c(=O)[nH]c(=O)c1/C=C/C(=O)NC(CO)C[S+]([O-])C[S+](C)[O-]` (stereo not given), the results for the GI50 in the assay with P388, in the assay on P388/ADR and with SN12K1 were 19.4 µM (inactive), 23.2 µM (inactive) and 9.38 µM (inactive), respectively.

As to `O=C1Nc2ccccc2Nc2ccncc21`, the results for the GI50 with P388, in the assay on P388/ADR and with SN12K1 were > 100 µM (inactive), > 31.6 µM (inactive) and > 100 µM (inactive), respectively.

In the case of `C/C=C1\NC(=O)[C@H]2CSSCCC=C[C@H](CC(=O)N[C@H](C(C)C)C(=O)N2)OC(=O)[C@H](C(C)C)NC1=O`, the GI50 (usually the concentration giving 50% growth inhibition) in the assay on P388 is < 0.01 µM (active); in the assay with P388/ADR it was < 0.0241 µM (active); in the assay on SN12K1, < 0.01 µM (active).
